Experimental findings from US12344621B2, “CGRP antagonist compounds” (Nxera Pharma UK Limited, priority 2019, dated 2025) are described below.

Molecules are shown by their SMILES. Where two headings read alike, the source gives them in different places.

For data set [1] the following is noted: amide bond.
For data set [2] the following is noted: amide bond. This is another data set of the same source.
Another data set deals with T1, human CGRP receptor (Homo sapiens, UniProt O60894+Q16602).
T1 construct: SK-N-MC endogenously expressing the human CGRP receptor; endogenous in cells; host or cells: SK-N-MC human neuroblastoma cells
In words: cAMP functional assay (HTRF cAMP dynamic-2) in SK-N-MC cells. It counts as cell-based. The settings on record: SK-N-MC cells endogenously expressing human CGRP receptor; challenge with EC80 human CGRP (0.3 nM); functional pKb converted from pIC50 by modified Cheng-Prussoff equation. The method, then: Biological Activity cAMP Functional Assay
cAMP production following receptor activation was determined using the Homogeneous Time-Resolved Fluorescence (HTRF) cAMP dynamic-2 assay (Cisbio, France). The human neuroblastoma cell line SK-N-MC endogenously expressing the human CGRP receptor was seeded at a density of 12,500 cells/well in solid walled 96 well half area plates (Costar, Catalog Number 3688, Corning Life Sciences, Germany). After 16 h incubation at 37° C. media was removed and cells were incubated at 37° C. for 30 min in serum free media containing 500 μM IBMX (Tocris, Abingdon, UK, Catalog Number 2845) and increasing concentrations of test antagonist. Following this cells were challenged with an EC80 concentration of human CGRP (0.3 nM) for a further 30 min at 37° C. and then cAMP production was determined as manufacturer's instructions before plates were read on a PheraStar fluorescence plate reader (BMG LabTech, Germany). IC50 values were derived from the inhibition curve. The pIC50 values (where pIC50=−log 10 IC50) were converted to a functional pKb value using a modified Cheng-Prussoff equation where Kd=agonist EC50 and L hot=agonist challenge concentration. The pKb values of certain compounds of the invention are detailed in Table 4.

T1 sequence (Q16602 23-461): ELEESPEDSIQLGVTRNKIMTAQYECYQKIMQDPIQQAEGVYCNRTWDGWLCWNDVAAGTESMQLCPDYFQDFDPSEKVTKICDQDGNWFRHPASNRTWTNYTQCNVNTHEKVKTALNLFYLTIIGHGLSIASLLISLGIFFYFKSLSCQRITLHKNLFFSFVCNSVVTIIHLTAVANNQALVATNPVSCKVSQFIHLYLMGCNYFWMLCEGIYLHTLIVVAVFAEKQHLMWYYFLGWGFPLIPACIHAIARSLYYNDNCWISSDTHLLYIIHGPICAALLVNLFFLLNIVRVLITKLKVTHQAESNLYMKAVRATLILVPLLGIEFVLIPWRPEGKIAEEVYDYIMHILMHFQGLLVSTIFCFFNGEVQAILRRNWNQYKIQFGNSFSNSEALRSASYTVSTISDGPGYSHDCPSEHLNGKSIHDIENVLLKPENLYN
T1 sequence (O60894 27-148): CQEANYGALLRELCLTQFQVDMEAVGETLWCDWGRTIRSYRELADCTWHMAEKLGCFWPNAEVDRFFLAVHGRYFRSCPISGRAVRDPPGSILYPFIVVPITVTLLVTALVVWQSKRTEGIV

The molecule `Cc1cc(C[C@H]2NC(=O)c3cnc4c(c3)C[C@@]3(C4)C(=O)Nc4ncc(cc43)/C=C/COCCOCCN(C)C2=O)cc2cn[nH]c12` [Example 1-1, (1S,10R,20E)-12-methyl-10-[(7-methyl-1H-indazol-5-yl)methyl]-15,18-dioxa-5,9,12,24,26-pentazapentacyclo[20.5.2.11,4.13,7.025,28]hentriaconta-3,5,7(30),20,22(29),23,25(28)-heptaene-8,11,27-trione] yielded a ring closure, isolated yield in data set [1] (from CNCCOCCOC/C=C/c1cnc2c(c1)[C@@]1(Cc3cc(C(=O)N[C@H](Cc4cc(C)c5[nH]ncc5c4)C(=O)O)cnc3C1)C(=O)N2, 22-membered ring, HATU/DIEA, DMA, 6.6 mM, 0.25 h) of 51%. The molecule further came in with a ring closure, yield of all isomers in data set [2] (from CNCCOCCOC/C=C/c1cnc2c(c1)[C@@]1(Cc3cc(C(=O)N[C@H](Cc4cc(C)c5[nH]ncc5c4)C(=O)O)cnc3C1)C(=O)N2, HATU, DMA, 6.6 mM, 0.25 h) of 51%. This molecule also showed a Kb on human CGRP receptor of 251 pM. In turn, `Cc1cc(C[C@H]2NC(=O)c3cnc4c(c3)C[C@@]3(C4)C(=O)Nc4ncc(cc43)/C=C/CCCCCCCN(C)C2=O)cc2cn[nH]c12` [Example 1-5, (1S,10R,20E)-12-methyl-10-[(7-methyl-1H-indazol-5-yl)methyl]-5,9,12,24,26-pentazapentacyclo[20.5.2.11,4.13,7.025,28]hentriaconta-3,5,7(30),20,22(29),23,25(28)-heptaene-8,11,27-trione] yielded a ring closure, isolated yield in data set [1] (from CNCCCCCCC/C=C/c1cnc2c(c1)[C@@]1(Cc3cc(C(=O)N[C@H](Cc4cc(C)c5[nH]ncc5c4)C(=O)O)cnc3C1)C(=O)N2, 22-membered ring, HATU/DIEA, DMF, 3.0 mM) of 34.8%. Besides, the ring closure, yield of all isomers in data set [2] (from CNCCCCCCC/C=C/c1cnc2c(c1)[C@@]1(Cc3cc(C(=O)N[C@H](Cc4cc(C)c5[nH]ncc5c4)C(=O)O)cnc3C1)C(=O)N2, HATU, DMF, 3.04 mM) was 34.8%. At human CGRP receptor, this molecule gave a Kb of 12.6 pM. As to `Cc1cc(C[C@H]2NC(=O)c3cnc4c(c3)C[C@@]3(C4)C(=O)Nc4ncc(cc43)/C=C/COCCCCCN(C)C2=O)cc2cn[nH]c12` [Example 1-6, (1S,10R,20E)-12-methyl-10-[(7-methyl-1H-indazol-5-yl)methyl]-18-oxa-5,9,12,24,26-pentazapentacyclo[20.5.2.11,4.13,7.025,28]hentriaconta-3,5,7(30),20,22(29),23,25(28)-heptaene-8,11,27-trione], in data set [1] (from CNCCCCCOC/C=C/c1cnc2c(c1)[C@@]1(Cc3cc(C(=O)N[C@H](Cc4cc(C)c5[nH]ncc5c4)C(=O)O)cnc3C1)C(=O)N2, 22-membered ring, HATU/DIEA, DMF, 3.7 mM, 0.03 h), the ring closure, isolated yield was found to be 58.9%. The molecule further displayed a ring closure, yield of all isomers in data set [2] (from CNCCCCCOC/C=C/c1cnc2c(c1)[C@@]1(Cc3cc(C(=O)N[C@H](Cc4cc(C)c5[nH]ncc5c4)C(=O)O)cnc3C1)C(=O)N2, HATU, DMF, 3.68 mM, 0.03 h) of 58.9%. The Kb at human CGRP receptor was 12.6 pM. `Cc1cc(C[C@H]2OC(=O)c3cnc4c(c3)C[C@@]3(C4)C(=O)Nc4ncc(cc43)/C=C/COCCOCCN(C)C2=O)cc2cn[nH]c12` [Example 4-1, (1S,10R,20E)-12-methyl-10-[(7-methyl-1H-indazol-5-yl)methyl]-9,15,18-trioxa-5,12,24,26-tetrazapentacyclo[20.5.2.11,4.13,7.025,28]hentriaconta-3,5,7(30),20,22(29),23,25(28)-heptaene-8,11,27-trione] yielded a ring closure, isolated yield in data set [1] (from CNCCOCCOC/C=C/c1cnc2c(c1)[C@@]1(Cc3cc(C(=O)O[C@H](Cc4cc(C)c5[nH]ncc5c4)C(=O)O)cnc3C1)C(=O)N2, 22-membered ring, HATU/DIEA, DMA, 5.0 mM, 0.08 h) of 62%. The ring closure, yield of all isomers in data set [2] (from CNCCOCCOC/C=C/c1cnc2c(c1)[C@@]1(Cc3cc(C(=O)O[C@H](Cc4cc(C)c5[nH]ncc5c4)C(=O)O)cnc3C1)C(=O)N2, HATU, DMA, 5.0 mM, 0.08 h) came to 62%. The Kb at human CGRP receptor is 200 pM. Molecule `Cc1cc(C[C@H]2OC(=O)c3ccc4c(c3)C[C@]3(C4)C(=O)Nc4ncc(cc43)/C=C/COCCOCCN(C)C2=O)cc2cn[nH]c12` [Example 5-1, (1S,10R,20E)-12-methyl-10-[(7-methyl-1H-indazol-5-yl)methyl]-9,15,18-trioxa-12,24,26-triazapentacyclo[20.5.2.11,4.13,7.025,28]hentriaconta-3,5,7(30),20,22(29),23,25(28)-heptaene-8,11,27-trione] gave a Kb on human CGRP receptor of 501 pM. On human CGRP receptor, `Cc1cc(C[C@H]2OC(=O)c3ccc4c(c3)C[C@@]3(C4)C(=O)Nc4ncc(cc43)/C=C/COCCOCCN(C)C2=O)cc2cn[nH]c12` [Example 5-2, (1R,10R,20E)-12-methyl-10-[(7-methyl-1H-indazol-5-yl)methyl]-9,15,18-trioxa-12,24,26-triazapentacyclo[20.5.2.11,4.13,7.025,28]hentriaconta-3,5,7(30),20,22(29),23,25(28)-heptaene-8,11,27-trione] gave a Kb of 398 pM. `Cc1cc(C[C@H]2NC(=O)N3CCC4(CC3)OC(=O)Nc3ncc(cc34)/C=C/COCCOCCN(C)C2=O)cc2cn[nH]c12` [Example 6-1, (7R,17E)-9-methyl-7-[(7-methyl-1H-indazol-5-yl)methyl]-12,15,25-trioxa-4,6,9,21,23-pentazatetracyclo[17.6.2.21,4.022,26]nonacosa-17,19(27),20,22(26)-tetraene-5,8,24-trione] came in with a ring closure, isolated yield in data set [1] (from CNCCOCCOC/C=C/c1cnc2c(c1)C1(CCN(C(=O)N[C@H](Cc3cc(C)c4[nH]ncc4c3)C(=O)O)CC1)OC(=O)N2, 21-membered ring, PyAOP/DIEA, DMF, 3.1 mM, 25.0 °C, 0.5 h) of 45%. Moreover, the ring closure, yield of all isomers in data set [2] (from CNCCOCCOC/C=C/c1cnc2c(c1)C1(CCN(C(=O)N[C@H](Cc3cc(C)c4[nH]ncc4c3)C(=O)O)CC1)OC(=O)N2, PyAOP, DMF, 3.08 mM, 25.0 °C, 0.5 h) turned out to be 45%. This molecule also had a Kb on human CGRP receptor of 501 pM. As to `Cc1cc(C[C@H]2OC(=O)N3CCC4(CC3)OC(=O)Nc3ncc(cc34)/C=C/COCCOCCN(C)C2=O)cc2cn[nH]c12` [Example 7-1, (7R,17E)-9-methyl-7-[(7-methyl-1H-indazol-5-yl)methyl]-6,12,15,25-tetraoxa-4,9,21,23-tetrazatetracyclo[17.6.2.21,4.022,26]nonacosa-17,19(27),20,22(26)-tetraene-5,8,24-trione], the ring closure, isolated yield in data set [1] (from CNCCOCCOC/C=C/c1cnc2c(c1)C1(CCN(C(=O)O[C@H](Cc3cc(C)c4[nH]ncc4c3)C(=O)O)CC1)OC(=O)N2, 21-membered ring, PyAOP/DIEA, DMF, 3.8 mM, 0.67 h) came out at 50%. In data set [2] (from CNCCOCCOC/C=C/c1cnc2c(c1)C1(CCN(C(=O)O[C@H](Cc3cc(C)c4[nH]ncc4c3)C(=O)O)CC1)OC(=O)N2, PyAOP, DMF, 3.76 mM, 0.67 h), this molecule returned a ring closure, yield of all isomers of 50%. The molecule further had a Kb at human CGRP receptor of 1260 pM. The molecule `Cc1cc(C[C@H]2OC(=O)N3CCC4(CC3)OC(=O)Nc3ncc(cc34)/C=C/COCCOCCOCCN(C)C2=O)cc2cn[nH]c12` [Example 7-2, (7R,20E)-9-methyl-7-[(7-methyl-1H-indazol-5-yl)methyl]-6,12,15,18,28-pentaoxa-4,9,24,26-tetrazatetracyclo[20.6.2.21,4.025,29]dotriaconta-20,22(30),23,25(29)-tetraene-5,8,27-trione] showed a Kb at human CGRP receptor of 2000 pM. Still for that read-out and setting: under `Cc1cc(C[C@H]2OC(=O)N3CCC4(CC3)OC(=O)Nc3ncc(cc34)/C=C/COCCCCCN(C)C2=O)cc2cn[nH]c12` [Example 7-3, (7R,17E)-9-methyl-7-[(7-methyl-1H-indazol-5-yl)methyl]-6,15,25-trioxa-4,9,21,23-tetrazatetracyclo[17.6.2.21,4.022,26]nonacosa-17,19(27),20,22(26)-tetraene-5,8,24-trione] stands 1260 pM; under `Cc1cc(C[C@H]2OC(=O)N3CCC4(CC3)OC(=O)Nc3ncc(cc34)/C=C/COCCOCCCN(C)C2=O)cc2cn[nH]c12` [Example 7-4, (7R,18E)-9-methyl-7-[(7-methyl-1H-indazol-5-yl)methyl]-6,13,16,26-tetraoxa-4,9,22,24-tetrazatetracyclo[18.6.2.21,4.023,27]triaconta-18,20(28),21,23(27)-tetraene-5,8,25-trione], 1260 pM. With `Cc1cc(C[C@H]2OC(=O)N3CCC4(CC3)OC(=O)Nc3ncc(cc34)CCCOCCOCCOCCN(C)C2=O)cc2cn[nH]c12` [Example 7-5, (7R)-9-methyl-7-[(7-methyl-1H-indazol-5-yl)methyl]-6,12,15,18,28-pentaoxa-4,9,24,26-tetrazatetracyclo[20.6.2.21,4.025,29]dotriaconta-22(30),23,25(29)-triene-5,8,27-trione], on human CGRP receptor, the Kb is 1580 pM. The same measure, in the same setting: under `Cc1cc(C[C@H]2OC(=O)N3CCC4(CC3)OC(=O)Nc3ncc(cc34)CCCOCCCCCN(C)C2=O)cc2cn[nH]c12` [Example 7-6, (7R)-9-methyl-7-[(7-methyl-1H-indazol-5-yl)methyl]-6,15,25-trioxa-4,9,21,23-tetrazatetracyclo[17.6.2.21,4.022,26]nonacosa-19(27),20,22(26)-triene-5,8,24-trione] stands 251 pM; under `Cc1cc(C[C@H]2OC(=O)N3CCC4(CC3)OC(=O)Nc3ncc(cc34)CCCOCCOCCCN(C)C2=O)cc2cn[nH]c12` [Example 7-7, (7R)-9-methyl-7-[(7-methyl-1H-indazol-5-yl)methyl]-6,13,16,26-tetraoxa-4,9,22,24-tetrazatetracyclo[18.6.2.21,4.023,27]triaconta-20(28),21,23(27)-triene-5,8,25-trione], 3980 pM.
